In PubChem BioAssay (NCI):
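Test compounds were applied to cells in 96-well plates for 48 hours at 5 doses. TGI is the concentration that stops growth completely.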

What was measured:
Experiment in all cases: DTP human tumour cell line panel, 48 h
786-0 renal = tested on: 786-0 renal
A498 renal = tested on: A498 renal
A549 NSCLC = tested on: A549 NSCLC
ACHN renal = tested on: ACHN renal
BT-549 breast = tested on: BT-549 breast
CAKI-1 renal = tested on: CAKI-1 renal
CCRF-CEM leukemia = tested on: CCRF-CEM leukemia
COLO 205 colon = tested on: COLO 205 colon
DU-145 prostate = tested on: DU-145 prostate
EKVX NSCLC = tested on: EKVX NSCLC
HCC-2998 colon = tested on: HCC-2998 colon
HCT-116 colon = tested on: HCT-116 colon
HCT-15 colon = tested on: HCT-15 colon
HL-60(TB) leukemia = tested on: HL-60(TB) leukemia
HOP-62 NSCLC = tested on: HOP-62 NSCLC
HOP-92 NSCLC = tested on: HOP-92 NSCLC
HS 578T breast = tested on: HS 578T breast
HT29 colon = tested on: HT29 colon
IGROV1 ovarian = tested on: IGROV1 ovarian
K-562 leukemia = tested on: K-562 leukemia
KM12 colon = tested on: KM12 colon
LOX IMVI melanoma = tested on: LOX IMVI melanoma
M14 melanoma = tested on: M14 melanoma
MALME-3M melanoma = tested on: MALME-3M melanoma
MCF7 breast = tested on: MCF7 breast
MDA-MB-231 breast = tested on: MDA-MB-231 breast
MDA-MB-435 = tested on: MDA-MB-435
MDA-N = tested on: MDA-N
MOLT-4 leukemia = tested on: MOLT-4 leukemia
NCI-H226 lung = tested on: NCI-H226 lung
NCI-H23 lung = tested on: NCI-H23 lung
NCI-H460 lung = tested on: NCI-H460 lung
NCI-H522 lung = tested on: NCI-H522 lung
NCI/ADR-RES ovarian = tested on: NCI/ADR-RES ovarian
OVCAR-3 ovarian = tested on: OVCAR-3 ovarian
OVCAR-4 ovarian = tested on: OVCAR-4 ovarian
OVCAR-5 ovarian = tested on: OVCAR-5 ovarian
OVCAR-8 ovarian = tested on: OVCAR-8 ovarian
PC-3 prostate = tested on: PC-3 prostate
RPMI-8226 leukemia = tested on: RPMI-8226 leukemia
RXF 393 renal = tested on: RXF 393 renal
SF-268 CNS = tested on: SF-268 CNS
SF-295 CNS = tested on: SF-295 CNS
SF-539 CNS = tested on: SF-539 CNS
SK-MEL-2 melanoma = tested on: SK-MEL-2 melanoma
SK-MEL-28 melanoma = tested on: SK-MEL-28 melanoma
SK-MEL-5 melanoma = tested on: SK-MEL-5 melanoma
SK-OV-3 ovarian = tested on: SK-OV-3 ovarian
SN12C renal = tested on: SN12C renal
SNB-19 CNS = tested on: SNB-19 CNS
SNB-75 CNS = tested on: SNB-75 CNS
SR leukemia = tested on: SR leukemia
SW-620 colon = tested on: SW-620 colon
T-47D breast = tested on: T-47D breast
TK-10 renal = tested on: TK-10 renal
U251 CNS = tested on: U251 CNS
UACC-257 melanoma = tested on: UACC-257 melanoma
UACC-62 melanoma = tested on: UACC-62 melanoma
UO-31 renal = tested on: UO-31 renal

COc1cc(C2c3cc4c(cc3OC(N3CCCCC3)C2C)OCO4)cc(OC)c1OC (stereo not drawn)
TGI (786-0 renal): 16.3 µM
TGI (A498 renal): 12.8 µM
TGI (A549 NSCLC): 36.1 µM
TGI (ACHN renal): 28.7 µM
TGI (BT-549 breast): > 100 µM
TGI (CAKI-1 renal): 17.5 µM
TGI (CCRF-CEM leukemia): 23.2 µM
TGI (COLO 205 colon): 11.3 µM
TGI (DU-145 prostate): 19.8 µM
TGI (EKVX NSCLC): > 100 µM
TGI (HCC-2998 colon): 8.39 µM
TGI (HCT-116 colon): 15.3 µM
TGI (HCT-15 colon): > 100 µM
TGI (HL-60(TB) leukemia): > 22.2 µM
TGI (HOP-62 NSCLC): 10.2 µM
TGI (HOP-92 NSCLC): 48.1 µM
TGI (HS 578T breast): 7.23 µM
TGI (HT29 colon): 19.8 µM
TGI (IGROV1 ovarian): 26 µM
TGI (K-562 leukemia): 13.7 µM
TGI (KM12 colon): 37.4 µM
TGI (LOX IMVI melanoma): 45 µM
TGI (M14 melanoma): 15 µM
TGI (MALME-3M melanoma): > 84.6 µM
TGI (MCF7 breast): 19.4 µM
TGI (MDA-MB-231 breast): 21 µM
TGI (MDA-MB-435): 2.91 µM
TGI (MDA-N): 3.28 µM
TGI (MOLT-4 leukemia): 67.4 µM
TGI (NCI-H226 lung): 13.5 µM
TGI (NCI-H23 lung): > 49.8 µM
TGI (NCI-H460 lung): 18 µM
TGI (NCI-H522 lung): 9.99 µM
TGI (NCI/ADR-RES ovarian): 17.1 µM
TGI (OVCAR-3 ovarian): 6.66 µM
TGI (OVCAR-4 ovarian): > 100 µM
TGI (OVCAR-5 ovarian): > 45.7 µM
TGI (OVCAR-8 ovarian): > 63.6 µM
TGI (PC-3 prostate): > 100 µM
TGI (RPMI-8226 leukemia): 37.9 µM
TGI (RXF 393 renal): 5.49 µM
TGI (SF-268 CNS): > 53.7 µM
TGI (SF-295 CNS): 5.77 µM
TGI (SF-539 CNS): 5.9 µM
TGI (SK-MEL-2 melanoma): 14.9 µM
TGI (SK-MEL-28 melanoma): > 100 µM
TGI (SK-MEL-5 melanoma): 17.6 µM
TGI (SK-OV-3 ovarian): 12.6 µM
TGI (SN12C renal): > 100 µM
TGI (SNB-19 CNS): 26.2 µM
TGI (SNB-75 CNS): 19.3 µM
TGI (SR leukemia): > 54.2 µM
TGI (SW-620 colon): > 55.4 µM
TGI (T-47D breast): > 53.8 µM
TGI (TK-10 renal): 35.4 µM
TGI (U251 CNS): 12.7 µM
TGI (UACC-257 melanoma): > 82.7 µM
TGI (UACC-62 melanoma): 47 µM
TGI (UO-31 renal): 46.2 µM

COC(=O)C1=C(C)NC(C)=C(C(=O)OC)C1c1ccc(NO)cc1
TGI (786-0 renal): 28.9 µM
TGI (A498 renal): 93.8 µM
TGI (A549 NSCLC): 43.5 µM
TGI (ACHN renal): 25.8 µM
TGI (BT-549 breast): 26.5 µM
TGI (CAKI-1 renal): 29.1 µM
TGI (CCRF-CEM leukemia): > 27.3 µM
TGI (COLO 205 colon): 29.2 µM
TGI (DU-145 prostate): 35.8 µM
TGI (EKVX NSCLC): 47.4 µM
TGI (HCC-2998 colon): 35.1 µM
TGI (HCT-116 colon): 21.8 µM
TGI (HCT-15 colon): 26.5 µM
TGI (HL-60(TB) leukemia): > 20.2 µM
TGI (HOP-62 NSCLC): 32.9 µM
TGI (HOP-92 NSCLC): 12.7 µM
TGI (HS 578T breast): 47.3 µM
TGI (HT29 colon): 29.8 µM
TGI (IGROV1 ovarian): 30.9 µM
TGI (K-562 leukemia): 8.07 µM
TGI (KM12 colon): 31.6 µM
TGI (LOX IMVI melanoma): 12.9 µM
TGI (M14 melanoma): 27.9 µM
TGI (MALME-3M melanoma): 25.8 µM
TGI (MCF7 breast): 19.2 µM
TGI (MDA-MB-231 breast): 26.6 µM
TGI (MDA-MB-435): 28.7 µM
TGI (MDA-N): 24.7 µM
TGI (MOLT-4 leukemia): > 22.4 µM
TGI (NCI-H226 lung): 47.1 µM
TGI (NCI-H23 lung): 49.8 µM
TGI (NCI-H460 lung): 33.9 µM
TGI (NCI-H522 lung): 12.2 µM
TGI (NCI/ADR-RES ovarian): 48.5 µM
TGI (OVCAR-3 ovarian): 26.7 µM
TGI (OVCAR-4 ovarian): 25 µM
TGI (OVCAR-5 ovarian): 29.8 µM
TGI (OVCAR-8 ovarian): 24.7 µM
TGI (PC-3 prostate): 26.3 µM
TGI (RPMI-8226 leukemia): 16.4 µM
TGI (RXF 393 renal): 36 µM
TGI (SF-268 CNS): 43.1 µM
TGI (SF-295 CNS): 33.1 µM
TGI (SF-539 CNS): 29.6 µM
TGI (SK-MEL-2 melanoma): 34.2 µM
TGI (SK-MEL-28 melanoma): 34.1 µM
TGI (SK-MEL-5 melanoma): 30.1 µM
TGI (SK-OV-3 ovarian): 50.3 µM
TGI (SN12C renal): 33.6 µM
TGI (SNB-19 CNS): > 78.8 µM
TGI (SNB-75 CNS): 45.8 µM
TGI (SR leukemia): > 20.4 µM
TGI (SW-620 colon): 19.8 µM
TGI (T-47D breast): 32.7 µM
TGI (TK-10 renal): 30.9 µM
TGI (U251 CNS): 29.9 µM
TGI (UACC-257 melanoma): 15.7 µM
TGI (UACC-62 melanoma): 26.8 µM
TGI (UO-31 renal): 23.5 µM
